Measurements reported in patent US8952163B2, “Substituted hydroxamic acids and uses thereof” (Millennium Pharmaceuticals, Inc., priority 2010, dated 2015).

Molecular target: T1, purified human HDAC6 (Homo sapiens, UniProt Q9UBN7)
T1 construct: purchased BPS Bioscience 5006
T1 sequence (Q9UBN7 1-1215): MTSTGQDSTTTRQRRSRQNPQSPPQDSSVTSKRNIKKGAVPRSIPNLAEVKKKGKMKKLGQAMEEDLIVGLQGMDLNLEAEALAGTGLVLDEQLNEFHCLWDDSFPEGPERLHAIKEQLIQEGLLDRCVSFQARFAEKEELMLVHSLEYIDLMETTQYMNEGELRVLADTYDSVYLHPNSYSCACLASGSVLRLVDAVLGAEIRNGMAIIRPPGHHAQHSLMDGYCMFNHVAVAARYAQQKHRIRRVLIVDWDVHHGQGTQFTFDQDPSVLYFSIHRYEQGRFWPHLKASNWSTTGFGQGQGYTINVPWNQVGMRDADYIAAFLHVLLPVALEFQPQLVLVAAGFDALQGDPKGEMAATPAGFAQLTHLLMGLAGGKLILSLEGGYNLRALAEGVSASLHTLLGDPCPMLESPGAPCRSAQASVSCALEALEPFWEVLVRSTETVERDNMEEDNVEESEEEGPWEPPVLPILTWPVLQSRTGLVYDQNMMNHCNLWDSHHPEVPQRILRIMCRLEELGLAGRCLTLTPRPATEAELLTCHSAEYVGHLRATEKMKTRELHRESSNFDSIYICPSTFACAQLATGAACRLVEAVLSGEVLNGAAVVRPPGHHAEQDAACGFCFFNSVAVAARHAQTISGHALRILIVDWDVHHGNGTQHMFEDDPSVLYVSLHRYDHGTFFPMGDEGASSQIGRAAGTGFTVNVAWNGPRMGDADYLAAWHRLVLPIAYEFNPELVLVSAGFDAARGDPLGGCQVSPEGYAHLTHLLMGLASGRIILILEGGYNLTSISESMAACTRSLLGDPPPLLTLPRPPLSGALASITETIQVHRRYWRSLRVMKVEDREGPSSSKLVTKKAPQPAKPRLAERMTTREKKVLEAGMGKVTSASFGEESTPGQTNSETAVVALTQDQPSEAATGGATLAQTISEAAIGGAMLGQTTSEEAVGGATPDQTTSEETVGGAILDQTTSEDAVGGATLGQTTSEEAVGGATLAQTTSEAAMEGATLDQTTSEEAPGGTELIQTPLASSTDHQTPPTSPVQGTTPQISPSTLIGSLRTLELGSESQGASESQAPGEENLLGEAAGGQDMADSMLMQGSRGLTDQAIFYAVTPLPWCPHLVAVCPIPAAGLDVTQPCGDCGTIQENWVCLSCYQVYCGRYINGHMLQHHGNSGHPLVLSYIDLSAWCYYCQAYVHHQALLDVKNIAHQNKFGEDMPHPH
Assay: HDAC6 Enzyme Assay
Type: biochemical
Conditions: test compound at 1.235 μM; substrate Ac-Arg-Gly-Lys(Ac)-AMC, 1 hour at 30° C.; read-out: Percent Inhibition at 1.235 μM
Experimental: To measure the inhibition of HDAC6 activity, purified human HDAC6 (BPS Bioscience; Cat. No. 5006) is incubated with substrate Ac-Arg-Gly-Lys(Ac)-AMC peptide (Bachem Biosciences; Cat. No. I-1925) for 1 hour at 30° C. in the presence of test compounds or vehicle DMSO control. The reaction is stopped with the HDAC inhibitor trichostatin A (Sigma; Cat. No. T8552) and the amount of Arg-Gly-Lys-AMC generated is quantitated by digestion with trypsin (Sigma; Cat. No. T1426) and subsequent measurement of the amount of AMC released using a fluorescent plate reader (Pherastar, BMG Technologies) set at Ex 340 nm and Em 460 nm. Concentration response curves are generated by calculating the fluorescence increase in test compound-treated samples relative to DMSO-treated controls, and percentage inhibition values at a single concentration or enzyme inhibition (IC50) values are determined from those curves. One skilled in the art will appreciate that the values generated either as percentage inhibition at a single concentration or IC50 values are subject to experimental variation.

SMILES | inhibition at 1.235 µM
CC(C)(C)c1ccc(C(=O)N2CCc3cc(C(=O)NO)cnc3C2)cc1 [Compound I-41, 7-(4-tert-butylbenzoyl)-N-hydroxy-5,6,7,8-tetrahydro-1,7-naphthyridine-3-carboxamide] | 93.4%
CCC(C)NC(=O)N1CCc2nc(C(=O)NO)ccc2C1 (centres unmarked) [Compound I-16, N^6-(sec-butyl)-N^2-hydroxy-7,8-dihydro-1,6-naphthyridine-2,6(5H)-dicarboxamide] | 27.3%
O=C(NO)c1cnc2c(c1)CN(C(=O)c1ccc(-c3ccccn3)s1)CC2 [Compound I-42, N-hydroxy-6-[(5-pyridin-2-yl-2-thienyl)carbonyl]-5,6,7,8-tetrahydro-1,6-naphthyridine-3-carboxamide] | 97.5%
O=C(NO)c1cnc2c(c1)CN(C(=O)c1sc3ccccc3c1Cl)CC2 [Compound I-5, 6-[(3-chloro-1-benzothien-2-yl)carbonyl]-N-hydroxy-5,6,7,8-tetrahydro-1,6-naphthyridine-3-carboxamide] | 93.4%
CC1(C(=O)N2CCc3ncc(C(=O)NO)cc3C2)CCCCC1 [Compound I-56, N-hydroxy-6-[(1-methylcyclohexyl)carbonyl]-5,6,7,8-tetrahydro-1,6-naphthyridine-3-carboxamide] | 93%
CC(C)(C)c1ccccc1NC(=O)N1CCc2nc(C(=O)NO)ccc2C1 [Compound I-40, N^6-(2-tert-butylphenyl)-N^2-hydroxy-7,8-dihydro-1,6-naphthyridine-2,6(5H)-dicarboxamide] | 50.4%
CCc1cccc(CC)c1NC(=O)N1CCc2nc(C(=O)NO)ccc2C1 [Compound I-47, N^6-(2,6-diethylphenyl)-N^2-hydroxy-7,8-dihydro-1,6-naphthyridine-2,6(5H)-dicarboxamide] | 34.3%
O=C(NO)c1ccc2c(n1)CCN(C(=O)c1[nH]c3ccccc3c1-c1ccccc1)C2 [Compound I-7, N-hydroxy-6-[(3-phenyl-1H-indol-2-yl)carbonyl]-5,6,7,8-tetrahydro-1,6-naphthyridine-2-carboxamide] | 79%
O=C(NO)c1cnc2c(c1)CN(C(=O)c1ccc(Cl)cc1)CC2 [Compound I-12, 6-(4-chlorobenzoyl)-N-hydroxy-5,6,7,8-tetrahydro-1,6-naphthyridine-3-carboxamide] | 94.5%
Cn1cccc1C(=O)N1CCc2cc(C(=O)NO)cnc2C1 [Compound I-24, N-hydroxy-7-[(1-methyl-1H-pyrrol-2-yl)carbonyl]-5,6,7,8-tetrahydro-1,7-naphthyridine-3-carboxamide] | 92.3%
CCCCS(=O)(=O)N1CCc2ncc(C(=O)NO)cc2C1 [Compound I-58, 6-(butylsulfonyl)-N-hydroxy-5,6,7,8-tetrahydro-1,6-naphthyridine-3-carboxamide] | 94.5%
O=C(NO)c1cnc2c(c1)CN(C(=O)c1[nH]c3ccccc3c1-c1ccccc1)CC2 [Compound I-29, N-hydroxy-6-[(3-phenyl-1H-indol-2-yl)carbonyl]-5,6,7,8-tetrahydro-1,6-naphthyridine-3-carboxamide] | 97.8%
COc1ccc(C(=O)N2CCc3ncc(C(=O)NO)cc3C2)cc1 [Compound I-32, N-hydroxy-6-(4-methoxybenzoyl)-5,6,7,8-tetrahydro-1,6-naphthyridine-3-carboxamide] | 93%
O=C(NO)c1cnc2c(c1)CN(S(=O)(=O)c1ccc(C(F)(F)F)cc1)CC2 [Compound I-62, N-hydroxy-6-{[4-(trifluoromethyl)phenyl]sulfonyl}-5,6,7,8-tetrahydro-1,6-naphthyridine-3-carboxamide] | 94.7%
CC(C)(C)c1ccc(C(=O)N2CCc3ncc(C(=O)NO)cc3C2)cc1 [Compound I-50, 6-(4-tert-butylbenzoyl)-N-hydroxy-5,6,7,8-tetrahydro-1,6-naphthyridine-3-carboxamide] | 95.1%
Cn1cccc1C(=O)N1CCc2nc(C(=O)NO)ccc2C1 [Compound I-11, N-hydroxy-6-[(1-methyl-1H-pyrrol-2-yl)carbonyl]-5,6,7,8-tetrahydro-1,6-naphthyridine-2-carboxamide] | 73.9%
CC(C)(C)OC(=O)N1CCc2cc(C(=O)NO)cnc2C1 [Compound I-3, tert-butyl 3-[(hydroxyamino)carbonyl]-5,8-dihydro-1,7-naphthyridine-7(6H)-carboxylate] | 95.3%
CC(=O)N1CCc2cc(C(=O)NO)cnc2C1 [Compound I-21, 7-acetyl-N-hydroxy-5,6,7,8-tetrahydro-1,7-naphthyridine-3-carboxamide] | 73.9%
CCCNC(=O)N1CCc2nc(C(=O)NO)ccc2C1 [Compound I-36, N^2-hydroxy-N^6-propyl-7,8-dihydro-1,6-naphthyridine-2,6(5H)-dicarboxamide] | 26.5%
Cn1cccc1C(=O)N1CCc2ncc(C(=O)NO)cc2C1 [Compound I-39, N-hydroxy-6-[(1-methyl-1H-pyrrol-2-yl)carbonyl]-5,6,7,8-tetrahydro-1,6-naphthyridine-3-carboxamide] | 92.5%
O=C(NO)c1ccc2c(n1)CCN(S(=O)(=O)c1ccc(C(F)(F)F)cc1)C2 [Compound I-59, N-hydroxy-6-{[4-(trifluoromethyl)phenyl]sulfonyl}-5,6,7,8-tetrahydro-1,6-naphthyridine-2-carboxamide] | 67.4%
Cc1nc(C(=O)N2CCc3cc(C(=O)NO)cnc3C2)cs1 [Compound I-10, N-hydroxy-7-[(2-methyl-1,3-thiazol-4-yl)carbonyl]-5,6,7,8-tetrahydro-1,7-naphthyridine-3-carboxamide] | 84.6%
COc1ccc(C(=O)N2CCc3cc(C(=O)NO)cnc3C2)cc1 [Compound I-48, N-hydroxy-7-(4-methoxybenzoyl)-5,6,7,8-tetrahydro-1,7-naphthyridine-3-carboxamide] | 91.1%
O=C(NO)c1ccc2c(n1)CCN(C(=O)Nc1ccccc1-c1ccccc1)C2 [Compound I-34, N^6-biphenyl-2-yl-N^2-hydroxy-7,8-dihydro-1,6-naphthyridine-2,6(5H)-dicarboxamide] | 48.2%
COc1ccc(C(=O)N2CCc3nc(C(=O)NO)ccc3C2)cc1 [Compound I-35, N-hydroxy-6-(4-methoxybenzoyl)-5,6,7,8-tetrahydro-1,6-naphthyridine-2-carboxamide] | 67%
O=C(NO)c1ccc2c(n1)CCN(C(=O)NC13CC4CC(CC(C4)C1)C3)C2 [Compound I-13, N^6-[1-adamantyl]-N^2-hydroxy-7,8-dihydro-1,6-naphthyridine-2,6(5H)-dicarboxamide] | 70.6%
O=C(NO)c1ccc2c(n1)CCN(C(=O)c1cc3ccccc3s1)C2 [Compound I-49, 6-(1-benzothien-2-ylcarbonyl)-N-hydroxy-5,6,7,8-tetrahydro-1,6-naphthyridine-2-carboxamide] | 94.1%
Cc1nc(-c2ccccn2)sc1C(=O)N1CCc2nc(C(=O)NO)ccc2C1 [Compound I-6, N-hydroxy-6-[(4-methyl-2-pyridin-2-yl-1,3-thiazol-5-yl)carbonyl]-5,6,7,8-tetrahydro-1,6-naphthyridine-2-carboxamide] | 81.4%
O=C(NO)c1cnc2c(c1)CCN(C(=O)c1ccc(Cl)cc1)C2 [Compound I-28, 7-(4-chlorobenzoyl)-N-hydroxy-5,6,7,8-tetrahydro-1,7-naphthyridine-3-carboxamide] | 91.9%
